Square brackets hold non-standard residues; d marks the D form. Peptide text beside a SMILES is read from it. Cya = N[C@@H](CS(=O)(=O)O)C(=O)O
System: study eye of subjects with intermediate non-exudative AMD
Assay: Low-luminance visual acuity
Assay type: in vivo, human
Method: Numerous study assessments were conducted at various time points throughout the study. Included among these study assessments were; refractive eye examinations, determinations of BCVA AND low-luminance BCVA, Lanthony D-15 color vision test, measurement of intraocular pressure (IOP), Indirect ophthalmoscopy/dilated fundus examinations and spectral-domain optical coherence tomography (SD-OCT). Also, blood and saliva samples were obtained from each subject for genetic analysis. The above-listed study assessments were performed at the time points indicated in Table 1, below: Table 10, below, summarizes low-luminescence visual acuity in the study subjects.

[1] = Week 12, Group 2 (1 mg IVT day 1 + wk 16)
[2] = Week 32, Group 1 crossover (sham day 1, 1 mg IVT wk 16)
[3] = Week 32, Group 2 (1 mg IVT day 1 + wk 16)
[4] = Week 32 change, Group 1 crossover (sham day 1, 1 mg IVT wk 16)
[5] = Week 32 change, Group 2 (1 mg IVT day 1 + wk 16)

In the case of C[C@@H](O)[C@H](NC(=O)[C@H](CS(=O)(=O)O)NC(=O)CNC(=O)[C@H](CCCNC(=N)N)NC(=O)CN)C(=O)N1CCC[C@H]1C(=O)O [risuteganib, Glycyl-L-arginylglycyl-3-sulfo-L-alanyl-L-threonyl-L-proline] (H-GRG[Cya]TP-OH), the “Low-luminance visual acuity letters read, mean” value [1] is reported as 46.4 letters read, the “Low-luminance visual acuity letters read, median” value [1] is reported as 48.0 letters read and the “Low-luminance visual acuity change in letters read, median” value (Week 12 change, Group 2 (1 mg IVT day 1 + wk 16)) is reported as −1.0 letters read. For the same compound, the “Low-luminance visual acuity letters read, mean” value [2] was 50.7 letters read, the “Low-luminance visual acuity letters read, median” value [2] was 57.0 letters read and the “Low-luminance visual acuity letters read, mean” value [3] was 49.4 letters read. For the same compound, the “Low-luminance visual acuity letters read, median” value [3] was 51.0 letters read, the “Low-luminance visual acuity change in letters read, mean” value [4] was 2.6 letters read and the “Low-luminance visual acuity change in letters read, median” value [4] was 3.0 letters read. For the same compound, the “Low-luminance visual acuity change in letters read, mean” value [5] was 2.0 letters read and the “Low-luminance visual acuity change in letters read, median” value [5] was 0.0 letters read.

Reference: patent US20220031800A1, “PEPTIDES FOR TREATING NON-EXUDATIVE MACULAR DEGENERATION AND OTHER DISORDERS OF THE EYE” (Allegro Pharmaceuticals, LLC, priority 2019, published 2022)
